Read-outs that look alike come from different tables or passages of the source.
Experiments:
[1] = Coronary blood flow and hemodynamics in conscious dogs; type: in vivo; conditions: for ED50: Canis lupus familiaris, read-out: ED50, increase in mean CBF
Method: Ten mongrel dogs (weighing 23-27 kg) were premedicated with Acepromazine (0.3 mg/kg im) and anesthetized with sodium pentobarbital (25 mg/kg) and then intubated and ventilated with room air. A thoracotomy was performed in the left fifth intercostal space using sterile surgical techniques. A Tygon catheter (Cardiovascular Instruments, Inc.) was placed in the descending thoracic aorta for the measurements of blood pressure. A solid-state pressure gauge (P6.5, Konisberg Instrument, Inc) was placed in the apex of the left ventricle for the measurement of the left ventricular systolic pressure (LVSP) and calculation of first derivative of left ventricular pressure (LV dP/dt). A Doppler transducer (Craig Hartley) was placed on the left circumflex coronary artery for measurement of CBF. An hydraulic coronary occluder (In Vivo Metric, Inc) was implanted in 4 dogs around the left circumflex coronary artery. The chest was closed in layers and the catheters and wires were run subcutaneously and exited in the interscapular area. The dogs were allowed 10 to 14 days to recover fully from the surgery and were trained to lie on a laboratory table. The protocols were approved by the Institutional Animal Care and Use Committee of New York Medical College and conform to the “Guiding Principles for the use and Care of Laboratory Animals” of the National Institute of Health and the American Physiology Society.
Arterial pressure was measured by connecting the previously implanted catheter to a strain-gauge transducer (P231D, Statham) and mean arterial pressure (MAP) was derived using 2-Hz low-pass filter. […] Left circumflex CBF was measured using a pulsed Doppler flowmeter (System 6, Triton technology), and mean CBF was derived using a 2-Hz low-pass filter. Mean CR was calculated as the quotient of MAP and CBF. Heart rate was monitored from the pressure pulse interval using a cardiotachometer (Beckman Instruments). The lead-2 of the electrocardiogram was recorded during the experiments in order to examine the alterations in the AV nodal conduction (PR interval). All signals were recorded on a direct-writing oscillograph (Gould 2800).
Hemodynamics were measured before, during and after each dose. Following each dose hemodynamics were allowed to return to baseline before the administration of the next dose. Changes in heart rate, blood pressure, CBF, and ECG were recorded.
Hemodynamic results are expressed as mean±SEM. […] Because no statistical differences were found among the baseline values between each dose for each parameter measure, the first baseline registered during each experiment was used as the control value.

[2] = test system: rat isolated perfused heart; assay: Reversal time of coronary vasodilation in rat isolated perfused hearts; conditions: bolus; for t0.5, time to 50% reversal of the increase in coronary conductance / t0.9, time to 90% reversal of the increase in coronary conductance: rat isolated perfused heart;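 for t0.5, time to 50% reversal of the increase in coronary conductance: each agonist bolused at its minimal concentration giving equal maximal coronary conductance rise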;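 for t0.9, time to 90% reversal of the increase in coronary conductance: each agonist bolused at its minimal concentration giving equal maximal coronary conductance rise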
Method: FIG. 10. Reversal of effect of agonist stimulation on CC. […] CC was measured at 8, 16 and 24 minutes after administration (FIG. 10A). […] R and N are the correlation coefficient and number of agonists, respectively.
The relationship between the affinity of agonists for the A2A receptor and the rate of reversal of agonist-mediated responses (coronary vasodilation in heart and cAMP accumulation in PC12 cells) upon termination of drug administration were determined. […] The duration of the coronary vasodilation in isolated rat hearts caused by adenosine, the CVT compounds, and other agonists measured as the time to 50% and 90% (t0.5 and t0.9, respectively) reversal of the increases in coronary conductance after termination of drug administration are summarized in Table 4.

[3] = test system: rat isolated perfused heart; assay: Coronary conductance / coronary perfusion pressure in isolated perfused rat hearts; conditions: for EC50: Rattus norvegicus; for effect on coronary conductance: isolated rat hearts, in words
Method: Briefly, rats of either sex weighing 230-260 grams were anesthetized by intraperitoneal injection of a mixture of ketamine (100 mg/ml) and xylazine (20 mg/ml). The chest of each rat was opened and the heart removed, and rinsed in ice-cold modified Krebs-Henseleit (K-H) solution containing NaCl 117.9, KCl 4.5, CaCl2 2.5, MgSO4 1.18, KH2PO4 1.18, pyruvate 2.0 mmo/L. The aorta was cannulated and the heart was perfused at a flow rate of 10 ml/min with modified K-H solution. The K-H solution (pH 7.4) was gassed continuously with 95% O2 and 5% CO2 and warmed to 35±0.5° C. The heart was electrically paced at a fixed cycle length of 240 ms (250 beats/min) using a bipolar electrode placed in the left atrium. The electrical stimuli were generated by a Grass stimulator (Model S48, W. Warwick, R.I.) and delivered through a Stimuli Isolation Unit (Model SIU5, Astro-Med, Inc., NY) as square-wave pulses of 3-msec in duration and with an amplitude of at least twice the threshold intensity.
The identity of the adenosine receptor subtype (A1 or A2A) mediating the coronary vasodilation was determined.
Coronary perfusion pressure (CPP) was measured using a pressure transducer that was connected to the aortic cannula via a T-connector positioned approximately 3 cm above the heart. CPP was monitored throughout an experiment and recorded either on a chart recorder (Gould Recorder 2200S, Valley View, Ohio) or a computerized recording system (PowerLab/4S, ADInstruments Pty Ltd, Australia). Only hearts with CPP ranging from 60 to 85 mmHg (in the absence of drugs) were used in the study. CC conductance (in ml/min/mmHg) was calculated as the ratio between coronary perfusion rate (10 ml/min) and CPP.

[4] = biological target: T1, A1 adenosine receptor (Rattus norvegicus, UniProt P25099); assay: A-V nodal conduction time (negative dromotropic effect) in isolated rat hearts
T1 construct: Effect of concentration on AV conduction time and coronary conductance in isolated rat hearts; tissue Simonsen Laboratories (Gilroy, Calif.); host or cells: isolated perfused rat heart (Sprague Dawley)
T1 sequence (P25099 1-326): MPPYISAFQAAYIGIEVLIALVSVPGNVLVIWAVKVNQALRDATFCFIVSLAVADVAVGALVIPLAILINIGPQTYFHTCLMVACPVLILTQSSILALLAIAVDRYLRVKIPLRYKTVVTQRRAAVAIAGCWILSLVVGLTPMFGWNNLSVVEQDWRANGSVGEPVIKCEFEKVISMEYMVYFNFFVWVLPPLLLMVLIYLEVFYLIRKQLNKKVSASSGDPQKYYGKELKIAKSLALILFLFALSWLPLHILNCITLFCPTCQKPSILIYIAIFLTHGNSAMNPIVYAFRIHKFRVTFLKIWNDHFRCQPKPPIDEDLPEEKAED

[5] = biological target: A2A adenosine receptors (Sus scrofa, UniProt K9IW67); assay: Competitive radioligand binding, [3H]ZM241385, pig striatum membranes
Sequence of A2A adenosine receptors (K9IW67 1-409): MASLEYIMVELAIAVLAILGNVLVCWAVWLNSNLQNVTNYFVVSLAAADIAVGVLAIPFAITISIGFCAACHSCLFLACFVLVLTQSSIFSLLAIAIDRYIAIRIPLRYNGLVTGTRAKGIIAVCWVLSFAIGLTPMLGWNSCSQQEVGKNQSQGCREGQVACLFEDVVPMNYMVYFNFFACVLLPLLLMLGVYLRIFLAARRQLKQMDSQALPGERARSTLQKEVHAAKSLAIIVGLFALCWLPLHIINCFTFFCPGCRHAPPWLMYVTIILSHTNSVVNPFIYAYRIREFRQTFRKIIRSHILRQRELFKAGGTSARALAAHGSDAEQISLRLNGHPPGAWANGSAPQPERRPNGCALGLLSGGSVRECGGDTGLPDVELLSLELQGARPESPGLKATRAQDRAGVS
Method: Membranes were also obtained from porcine striatial cells as follows. […] The homogenate was filtered through cotton gauze and centrifuged at 48,000g for 15 minutes at 4° C. […] The final pellet was frozen at −80° C. until used for receptor binding assays.

[6] = biological target: A2A adenosine receptors (PC12 cells) (Rattus norvegicus, UniProt P30543); assay: cAMP accumulation in PC12 cells
Sequence of A2A adenosine receptors (PC12 cells) (P30543 whole entry): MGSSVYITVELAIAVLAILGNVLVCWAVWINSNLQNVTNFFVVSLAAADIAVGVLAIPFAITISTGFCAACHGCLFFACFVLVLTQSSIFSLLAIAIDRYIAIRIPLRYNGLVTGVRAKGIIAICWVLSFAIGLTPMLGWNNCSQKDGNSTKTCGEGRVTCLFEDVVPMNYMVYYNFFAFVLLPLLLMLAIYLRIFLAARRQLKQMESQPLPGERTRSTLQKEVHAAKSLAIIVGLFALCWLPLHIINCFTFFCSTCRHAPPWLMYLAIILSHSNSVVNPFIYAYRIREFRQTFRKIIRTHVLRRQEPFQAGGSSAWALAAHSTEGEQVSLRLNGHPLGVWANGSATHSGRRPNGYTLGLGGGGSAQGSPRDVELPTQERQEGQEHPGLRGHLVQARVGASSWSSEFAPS
Method: Effects of adenosine receptor agonists on cAMP content in intact PC12 cells. […] Cyclic AMP levels were determined as described under “Methods”. Values represent mean±SEM of results of triplicate samples from three experiments. […] Values represent mean±SEM of triplicate determinants from one representative experiment.
Briefly, PC12 cells were rinsed three times with Hanks' balanced saline solution (HBSS), detached using a cell lifter, and pelleted by centrifugation at 500 g for 5 minutes. Aliquots of the cell suspension (0.1 to 0.2 mg protein) were placed in microfuge tubes with 250 μL of HBSS containing rolipram (50 μmol/L) to inhibit phosphodiesterases that degrade cAMP_and warmed to 37° C. Appropriate drugs were added to the cell suspensions, and incubations were allowed to continue for 10 minutes. Tubes were placed in a boiling water bath for 5 minutes to terminate the incubation. The samples were then cooled to room temperature, diluted by the addition of 1 mL of 10 mmol/L Tris-HCl buffer at pH 7.4, and then centrifuged for 2 minutes at 13000 g.
The samples were then incubated at 4° C. for 16 hours. At the end of the incubation, 70 μL of a 50% (wt/vol) hydroxyapatite suspension was added to each tube. The suspensions were gently agitated and then incubated for 10 minutes at 4° C. Antibody-bound radioactivity adsorbed to hydroxyapatite was collected onto glass fiber filters by vacuum filtration using a Brandel cell harvester. Radioactivity retained by the filter was counted in a gamma counter. […] The amount of cAMP present in samples was calculated based on a standard curve using known amounts of cAMP.

[7] = read-out: EC50, Coronary Conductance (Rat Isolated Heart)
[8] = read-out: pEC50 ± SEM, Coronary Conductance (Rat Isolated Heart) (converted)
[9] = [3H]ZM241385, Gpp(NH)p present, read-out: pKi ± SEM, Pig Strialum (A2A) (converted)
[10] = read-out: binding affinity to A2A receptors in pig striatum (Ki)

Compound: Nc1ncnc2c1ncn2[C@@H]1O[C@H](CO)[C@@H](O)[C@H]1O [Adenosine, adenosine, reference compound]
- increase in LVSP ([1]; 67 μg/kg, conscious dogs): 12±3%
- increase in LVSP ([1]; 134 μg/kg, conscious dogs): 12±3%
- maximal decrease in CR ([1]; 267 μg/kg iv, conscious dogs): 73±1%
- increase in LVSP ([1]; 267 μg/kg, conscious dogs): 18±6%
- increase in dP/dt ([1]; 267 μg/kg, conscious dogs): 29±7%
- ED50 ([1]; IV bolus, conscious dogs): 0.051 ± 0.015 mg/kg
- duration of the effect on coronary conductance (rank among agonists) ([2]; isolated rat hearts, FIG. 10): shortest
- t0.5, time to 50% reversal of the increase in coronary conductance [2]: 1.6 ± 0.1 min
- t0.9, time to 90% reversal of the increase in coronary conductance [2]: 5.6 ± 0.8 min
- EC50 [3, 7]: 59.2 nM
- EC50 [3, 8]: 57.5 nM
- effect on coronary conductance [3]: concentration-dependent increases in coronary conductance

Compound: CCCCCn1cc(-c2nc(N)c3ncn(C4O[C@@H](CO)[C@H](O)[C@@H]4O)c3n2)cn1 (stereo partly drawn) [CVT-3033]
- effect on A-V nodal conduction time [4]: did not prolong A-V nodal conduction time
- Ki [5, 9]: 2140 nM
- Ki [5, 10]: 1420 nM
- t0.5, time to 50% reversal of the increase in coronary conductance [2]: 3.4 ± 0.5 min
- t0.9, time to 90% reversal of the increase in coronary conductance [2]: 8.4 ± 2.2 min
- EC50 [3, 7]: 68 nM
- EC50 [3, 8]: 64.6 nM
- effect on coronary conductance [3]: increased coronary conductance in a concentration-dependent manner
- EC50 [6]: 487 nM
- shift to the right of the CGS21680 concentration-response curve ([6]; CVT-3033 1 μM, PC12 cells): ~5 fold
- Emax ([6]; PC-12, read-out: maximal response of cAMP accumulation, % of that induced by CGS21680): 63%
- agonist behaviour in PC12 cells ([6]; cAMP accumulation): partial A2A agonists

Compound: CNC(=O)c1cnn(-c2nc(N)c3ncn(C4O[C@@H](CO)[C@H](O)[C@@H]4O)c3n2)c1 (stereo partly drawn) [CVT-3146]
- effect on A-V nodal conduction time [4]: did not prolong A-V nodal conduction time
- maximal decrease in CR ([1]; 2.5 μg/kg iv, conscious dogs): 73±2%
- increase in dP/dt ([1]; 2.5 μg/kg, conscious dogs): 39±7%
- maximal decrease in CR ([1]; 5 μg/kg iv, conscious dogs): 75±2%
- ED50 ([1]; IV bolus, conscious dogs): 0.00034 ± 8e-05 mg/kg
- maximal increase in mean CBF from baseline ([1]; IV bolus, conscious dogs, baseline 45±3 ml/min): 154 ± 16 mL/min
- changes in LVSP ([1]; increasing doses, conscious dogs (data not shown)): did not cause significant changes in LVSP
- Ki [5, 9]: 1120 nM
- Ki [5, 10]: 1100 nM
- decrease in coronary perfusion pressure ([3]; 10 nM, isolated rat heart): 23 mmHg
- effect of 60 nM CPX (A1 antagonist) on the increase in coronary conductance ([3]; CVT-3146 10 nM): not affected
- effect of 60 nM ZM241385 (A2a antagonist) on the increase in coronary conductance ([3]; CVT-3146 10 nM): completely reversed
- coronary conductance ([3]; CVT-3146 10 nM, baseline 0.16±0.02, n=6 hearts): 0.22±0.01 ml mm Hg−1 min−1
- EC50 [3, 7]: 6.4 nM
- EC50 [3, 8]: 6.46 nM
- agonist behaviour with respect to coronary artery conductance ([3]; isolated rat heart): full agonist
- effect on coronary conductance [3]: increased coronary conductance in a concentration-dependent manner
- EC50 [6]: 291 nM

From US20050175535A1 (CV Therapeutics, Inc., priority 2000, published 2005)
